The values that follow come from US4808612A, “2-Arylbenzo(b)(1,6)naphthyridines as inhibitors of interleukin 1” (American Home Products Corporation, priority 1987, dated 1989).

For the assay, the system named is IL 1-induced release of neutral protease from rabbit articular chondrocytes. Kind of assay: Inhibition of the IL 1-induced release of neutral protease from rabbit articular chondrocytes (azocoll neutral protease assay). Format: cell-based. The following applies: Oryctolagus cuniculus, Chondrocyte, purified human IL 1, 24 h after IL 1 stimulation, read-out: % Inhibition (S.D). The method, then: The ability of the compounds of the inventions to inhibit interleukin 1 is measured by the ability of the test compounds to inhibit the IL 1-induced release of neutral protease from rabbit articular chondrocytes.
This assay is carried out as follows:
Isolation of rabbit chondrocytes:
Male New Zealand White rabbits are anesthetized with 50 mg/kg of ketamine (i.m.) and killed by an intracardiac injection of 3 mls. of Nembutal. The knee joints of both legs are resected and the articular surfaces are exposed. Cartilage slices are obtained using a scalpel and are placed in a tissue culture dish (100 mm diameter) containing 10 mls of Hank's balanced salt solution (HBSS). The chondrocytes within the cartilage slices are then liberated by a series of enzyme digestions. The slices are incubated for 10 min. at 37° C. in 0.05% hyaluronidase (Sigma H-3884), rinsed with HBSS and incubated with 0.2% trypsin (Sigma T-2395) for 10 min. at 37° C. The slices are rinsed again and incubated for 10 mins. at 37° C. with 1.2% collagenase (Sigma C-5138). The slices are then rinsed again with HBSS and resuspended in 10 ml of Ham's F-12 medium containing 10% fetal bovine calf cerum (FCS) and 0.2% collagenase and incubated overnight at 37° C. in a 5% CO2 incubator. The next day, the medium containing the digested cartilage fragments and liberated chondrocytes is transferred to a 15 ml centrifuge tube and the cells are collected by centrifugation and washed twice and resuspended in Ham's F-12 medium. The cells are then plated into 24-well tissue culture plates (2×10^5 cells/well) and incubated at 37° C. until confluent (usually 4-6 days).
Stimulation of chondrocytes and drug treatment:
The confluent chondrocytes are rinsed twice with serum-free Ham's F-12 medium and 1 ml is added to each well. Fifty μl of purified human IL 1 (100 Units/ml; Genzyme Corporation, Boston, MA) is then added to stimulate these cells to secrete neutral protease. To measure drug effects, the cells are treated with test compound 10 min. prior to addition of IL 1. The standard screening dose is 10 μM. Twenty-four hours after IL 1 stimulation, supernatant fluids are collected and assayed for neutral protease activity.
The neutral protease activity of chondrocyte supernatant fluids is determined by their ability to degrade an insoluble protease substrate, azocoll (Sigma). Supernatants are treated for 10 min. at room temperature with 350 μM p-aminophenylmurcuric acetate to activate the latent enzyme. Three hundred μl of supernatant is then mixed with 500 μl of a 20 mg/ml suspension of azocoll and incubated at 37° C. for 18-24 hrs. with gentle rocking. The mixtures are centrifuged and the amount of substrate hydrolyzed is determined by measuring the absorbance of the supernatant at 520 nm.
Drug effects are calculated as the % change in enzyme activity (absorbance)by supernatants from drug-treated chondrocytes relative to enzyme activity of supernatants from vehicle-treated chondrocytes as follows: [formula]

Molecules are shown by their SMILES.

Usually inhibition stands for the change of the read-out against control, counted positive when it falls. On to `N#Cc1ccc(N2CCc3nc4cc(Cl)ccc4c(Cl)c3C2)cc1` [Example 1, 4-(7,10-Dichloro-3,4-dihydrobenzo[b][1,6]naphthyridin-2(1H)-yl)benzonitrile], for which the inhibition at 10 µM is 22 ± 1%.
Take `CCOC(=O)c1ccc(N2CCc3nc4cc(Cl)ccc4c(Cl)c3C2)cc1` [Example 2, 4-(7,10-Dichloro-3,4-dihydrobenzo[b][1,6]naphthyridin-2(1H)-yl)benzoic acid ethyl ester]: the inhibition at 10 µM was 35 ± 16%.
In the case of `CS(=O)(=O)c1ccc(N2CCc3nc4cc(Cl)ccc4c(Cl)c3C2)cc1` [Example 3, 7,10-Dichloro-1,2,3,4-tetrahydro-2-(4-methylsulfonyl)phenylbenzo[b][1,6]naphthyridine], the inhibition at 0.1 µM is 69 ± 1%, the inhibition at 1 µM was 66 ± 1% and the inhibition at 10 µM came out at 62 ± 2%.
Take `Fc1ccc(N2CCc3nc4cc(Cl)ccc4c(Cl)c3C2)cc1` [Example 4, 7,10-Dichloro-2-(4-fluorophenyl)-1,2,3,4-tetrahydrobenz[b][1,6]naphthyridine]: the inhibition at 1 µM came to 9 ± 20% and the inhibition at 10 µM was 76 ± 29%.
In the case of `N#Cc1ccc(N2CCc3nc4ccccc4c(Cl)c3C2)cc1` [Example 5, 4-(10-Chloro-3,4-dihydrobenzo[b][1,6]naphthyridine-2(1H)-yl)benzonitrile, hemihydrate], the inhibition at 10 µM amounted to 66 ± 29%.
As for `CCOC(=O)c1ccc(N2CCc3nc4ccccc4c(Cl)c3C2)cc1` [Example 8, 4-(10-Chloro-3,4-dihydrobenzo[b][1,6]naphthyridin-2(1H)-yl)benzoic acid ethyl ester], the inhibition at 0.1 µM amounted to 40%, the inhibition at 1 µM was determined as 43% and the inhibition at 10 µM is 91%.
Consider `N#Cc1ccc(N2CCc3nc4ccc(Cl)cc4c(Cl)c3C2)cc1` [Example 9, 4-(8,10-Dichloro-3,4-dihydrobenzo[b][1,6]naphthyridin-2(1H)-yl)benzonitrile, 1/4 hydrate], for which the inhibition at 1 µM came to 43% and the inhibition at 10 µM was determined as 86%.
In the case of `Cc1ccc2c(Cl)c3c(nc2c1)CCN(c1ccc(C#N)cc1)C3` [Example 10, 4-(10-Chloro-3,4-dihydro-7-methylbenzo[b][1,6]naphthyridin-2(1H)-yl)benzonitrile, 1/5 ethyl acetate], the inhibition at 10 µM was determined as 33%.
In the case of `N#Cc1ccc(N2CCc3nc4cc(F)ccc4c(Cl)c3C2)cc1` [Example 11, 4-(10-Chloro-7-fluoro-3,4-dihydrobenzo[b][1,6]naphthyridin-2(1H)-yl)benzonitrile, 1/4 hydrate], the inhibition at 10 µM is below 20%.
With `N#Cc1ccc(N2CCc3nc4cc(Cl)ccc4c(NNc4ccccc4)c3C2)cc1` [Example 12, 4-[7-Chloro-3,4-dihydro-10-(2-phenylhydrazino)benzo[b][1,6]naphthyridin-2(1H)-yl]benzonitrile, hydrate], the inhibition at 10 µM is 69%.
